The results in this text go back to article PMC10022894, “Plant and prokaryotic TIR domains generate distinct cyclic ADPR NADase products” (Science Advances, 2023).

What all share (type): biochemical
One assay addresses T1, ThsA (Bacillus cereus, UniProt J8G6Z1).
T1 construct: SIR2-type NADase with C-terminal SLOG domain; in vitro preparation not described in main text
Put plainly: in vitro NAD+ consumption. Particulars: stimulated by NADase products of ThsB-Auto.

For a further assay, the target named is T2, AbTIR (Acinetobacter baumannii, UniProt A0A009IHW8).
T2 construct: gene J512_3302; core TIR domain, residues 157-292; N-terminal Strep II and C-terminal 6xHis tags (pET30a+), E. coli BL21(DE3); catalytic E208
T2 sequence (A0A009IHW8 134-269): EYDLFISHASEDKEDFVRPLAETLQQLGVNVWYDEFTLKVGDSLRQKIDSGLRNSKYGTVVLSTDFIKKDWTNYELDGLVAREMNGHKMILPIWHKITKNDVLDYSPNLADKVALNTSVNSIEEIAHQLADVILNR
Put plainly: in vitro NADase assay on bead-bound protein, LC-MS. To be noted: […] NAD+, ~[…] C, […] h.

Another assay addresses T3, HopAM1 (Pseudomonas syringae group genomosp. 3, UniProt Q877R9).
T3 construct: gene hopAM1-1; TIR effector; N-terminal Strep II and C-terminal 6xHis tags (pET30a+), E. coli BL21(DE3)
Put plainly: in vitro NADase assay on bead-bound protein, LC-MS. To be noted: […] NAD+, ~[…] C, […] h.

A further assay addresses T4, BdTIR (Brachypodium distachyon, UniProt I1GTC2).
T4 construct: gene BRADI_1g24377v3; TIR-only protein; N-terminal Strep II and C-terminal 6xHis tags (pET30a+), E. coli BL21(DE3); catalytic E127
T4 sequence (I1GTC2 1-224): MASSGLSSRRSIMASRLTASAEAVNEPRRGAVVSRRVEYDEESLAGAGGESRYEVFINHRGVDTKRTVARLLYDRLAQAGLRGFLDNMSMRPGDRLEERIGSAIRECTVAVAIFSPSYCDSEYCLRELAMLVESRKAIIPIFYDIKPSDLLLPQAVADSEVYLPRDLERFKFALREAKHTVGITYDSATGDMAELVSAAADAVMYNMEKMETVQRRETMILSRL
Put plainly: in vitro NADase assay on bead-bound protein, LC-MS. Particulars: […] NAD+, ~[…] C, […] h.

T1 sequence (J8G6Z1 whole entry, the tested form may be a part): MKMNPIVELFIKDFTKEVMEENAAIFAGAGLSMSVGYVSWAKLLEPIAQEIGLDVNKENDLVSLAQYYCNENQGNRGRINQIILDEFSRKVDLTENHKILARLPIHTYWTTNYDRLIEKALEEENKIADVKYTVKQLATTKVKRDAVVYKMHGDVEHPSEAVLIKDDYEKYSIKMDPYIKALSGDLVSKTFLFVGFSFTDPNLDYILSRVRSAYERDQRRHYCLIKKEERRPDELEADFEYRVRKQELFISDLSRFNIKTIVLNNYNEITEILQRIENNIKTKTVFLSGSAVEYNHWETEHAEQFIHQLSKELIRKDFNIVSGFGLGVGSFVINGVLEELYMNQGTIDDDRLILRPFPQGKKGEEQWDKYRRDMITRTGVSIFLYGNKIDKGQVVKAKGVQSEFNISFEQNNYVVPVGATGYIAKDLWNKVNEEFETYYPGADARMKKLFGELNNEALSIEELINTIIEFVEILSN
T3 sequence (Q877R9 whole entry): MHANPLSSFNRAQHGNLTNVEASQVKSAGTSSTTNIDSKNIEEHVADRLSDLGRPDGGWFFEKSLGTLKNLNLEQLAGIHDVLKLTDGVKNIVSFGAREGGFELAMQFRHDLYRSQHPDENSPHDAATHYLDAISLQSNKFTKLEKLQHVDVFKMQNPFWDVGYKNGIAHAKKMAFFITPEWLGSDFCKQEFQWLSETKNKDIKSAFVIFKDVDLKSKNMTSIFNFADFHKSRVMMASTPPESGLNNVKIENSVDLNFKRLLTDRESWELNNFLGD

For the compound `NC(=O)c1ccc[n+]([C@@H]2O[C@H](COP(=O)(O)OP(=O)(O)OC[C@H]3O[C@@H](n4cnc5c(N)ncnc54)[C@H](O)[C@@H]3O)[C@@H](O)[C@H]2O)c1` [NAD^+], the “in vitro NAD+ consumption” value on ThsA is “NADase products of ThsB-Auto could stimulate NAD^+ consumption by ThsA in vitro”. For the same compound, the “in vitro NADase assay on bead-bound protein, LC-MS” value was “we compared the in vitro NADase products of ThsB-Auto, BdTIR, AbTIR, and HopAM1” at AbTIR; “we compared the in vitro NADase products of ThsB-Auto, BdTIR, AbTIR, and HopAM1” on HopAM1; “we compared the in vitro NADase products of ThsB-Auto, BdTIR, AbTIR, and HopAM1” on BdTIR.
